Source: patent US11512053B2, “Arginine methyltransferase inhibitors and uses thereof” (priority 2013, dated 2022)
Structures can show the parent of a compound that is named as a salt. Where two headings read alike, the source gives them in different places.

Tests used:
[1] = target: full-length human PRMT6 (Flag- and His-tagged) (Homo sapiens, UniProt Q96LA8); assay: PRMT6 Biochemical Assay (3H-SAM Flashplate, peptide substrate); conditions: read-out: Biochemical IC50 PRMT6
In short: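 Flag/His-tagged full-length human PRMT6 (1 nM) preincubated with compound 30 min at room temperature in Bicine pH 7.6 buffer, then reaction started with 3H-SAM 200 nM plus unlabeled SAM 250 nM and biotinylated H4 36-50 peptide (K44me1) 75 nM; 2% DMSO. Quenched with 400 uM cold SAM; labeled peptide captured on streptavidin Flashplate, counted; % inhibition vs DMSO and 1 mM SAH controls fit by 3- or 4-parameter curve.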

[2] = tested on: mono-methyl arginine in RKO cells; assay: RKO Methylation Assay, In Cell Western (ICW) for detection of mono-methyl arginine and DNA content; assay type: cell-based
In short: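 RKO cells were treated with compound for 72 hours at 37 °C, methanol-fixed and stained overnight at 4 °C with anti-mono-methyl arginine (1:200), with DRAQ5 for DNA. Odyssey 800/700 nm intensity ratio was normalized to DMSO and 20 μM reference-compound controls. EC30 from triplicate nine-point curves.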

[3] = single experiment or average of multiple experiments
[4] = Homo sapiens, RKO, 72 h, RKO cells, 72 hours compound incubation, mono-methyl arginine signal normalised to DNA content (DRAQ5), percent activation vs 20 μM reference compound, read-out: In Cell Western EC30
[5] = Homo sapiens, RKO, 72 h, RKO cells, 72 hours incubation, mono-methyl arginine signal normalised to DNA content, single experiment or average of multiple experiments, read-out: In Cell Western EC30

Chain of full-length human PRMT6 (Flag- and His-tagged) (Q96LA8 with tags, fused parts or gaps): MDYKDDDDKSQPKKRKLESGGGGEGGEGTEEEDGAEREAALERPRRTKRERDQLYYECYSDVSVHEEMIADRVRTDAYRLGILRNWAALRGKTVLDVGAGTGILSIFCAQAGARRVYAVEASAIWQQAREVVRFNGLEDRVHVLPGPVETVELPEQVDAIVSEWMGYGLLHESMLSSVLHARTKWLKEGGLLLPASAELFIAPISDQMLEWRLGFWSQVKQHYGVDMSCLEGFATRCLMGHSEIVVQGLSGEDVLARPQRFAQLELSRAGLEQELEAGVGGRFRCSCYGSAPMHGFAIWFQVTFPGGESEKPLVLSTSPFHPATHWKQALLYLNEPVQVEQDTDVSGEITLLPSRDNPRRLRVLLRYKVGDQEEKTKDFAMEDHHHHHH

| SMILES | IC50 [1] [nM] | IC50 [1, 3] [nM] | EC30 [2, 4] [nM] | EC30 [2, 5] [nM] | EC30 ([2]; Homo sapiens, RKO, 72 h, read-out: In Cell Western EC30, RKO cells, 72 hours compound incubation, mono-methyl arginine signal normalised to DNA content (DRAQ5), percent activation vs 20 μM reference compound) [nM] | EC30 ([2]; Homo sapiens, RKO, 72 h, read-out: In Cell Western EC30, RKO cells, 72 hours incubation, mono-methyl arginine signal normalised to DNA content, single experiment or average of multiple experiments) [nM] | In Cell Western EC30 ([2]; RKO cells, 72 hours compound incubation, mono-methyl arginine signal normalised to DNA content (DRAQ5), percent activation vs 20 μM reference compound) | EC30 ([2]; RKO cells, 72 hours incubation, mono-methyl arginine signal normalised to DNA content, single experiment or average of multiple experiments, read-out: In Cell Western EC30) [nM] |
| --- | --- | --- | --- | --- | --- | --- | --- | --- |
| CCC(=O)N(CCOc1ccccc1)[C@H]1CC[C@@H](c2n[nH]cc2CN(C)CCNC)CC1 [Compound 220] | < 100 | 18.4 | < 3000 | 219 | – | – | – | – |
| CCC(=O)N(CCOc1ccccc1)[C@H]1CC[C@H](c2n[nH]cc2CN(C)CCNC)CC1 [Compound 221] | < 100 | 19.2 | < 3000 | 490 | – | – | – | – |
| CNCCN(C)Cc1c[nH]nc1[C@H]1CC[C@@H](N(CCOc2ccccc2)C(=O)CC(C)C)CC1 [Compound 222] | < 100 | 21.3 | < 3000 | 2610 | – | – | – | – |
| CNCCN(C)Cc1c[nH]nc1[C@H]1CC[C@H](O)CC1 [Compound 227, 4-[4-([methyl[2-(methylamino)ethyl]amino]methyl)-1H-pyrazol-3-yl]cyclohexan-1-ol trifluoroacetate] | < 100 | 17.8 | – | – | < 3000 | 1530 | – | – |
| CNCCN(C)Cc1c[nH]nc1[C@H]1CC[C@H](N(CCOC)C(=O)CCOc2ccccc2)CC1 [Compound 230] | < 100 | 23.1 | < 3000 | 1320 | – | – | – | – |
| CNCCN(C)Cc1c[nH]nc1[C@H]1CC[C@H](N(CC(C)C)C(=O)CCOc2ccccc2)CC1 [Compound 232] | < 100 | 19.4 | < 3000 | 957 | – | – | – | – |
| CNCCN(C)Cc1c[nH]nc1[C@H]1CC[C@H](N(CCC(C)C)C(=O)CCOC)CC1 [Compound 236] | < 100 | 62.4 | < 3000 | 813 | – | – | – | – |
| CCN(C(=O)CC(C)C)[C@H]1CC[C@H](c2n[nH]cc2CN(C)CCNC)CC1 [Compound 239] | < 100 | 7.75 | < 3000 | 2150 | – | – | – | – |
| CCN(C(=O)CC(C)C)[C@H]1CC[C@@H](c2n[nH]cc2CN(C)CCNC)CC1 [Compound 240] | < 100 | 6.72 | < 3000 | 1180 | – | – | – | – |
| CNCCN(C)Cc1c[nH]nc1[C@H]1CC[C@H](N(CCCOC)C(=O)CC(C)C)CC1 [Compound 241] | < 100 | 32.8 | < 3000 | 1180 | – | – | – | – |
| CNCCN(C)Cc1c[nH]nc1[C@H]1CC[C@@H](N(CCCOC)C(=O)CCOc2ccccc2)CC1 [Compound 246] | < 100 | 28.3 | < 3000 | 79.9 | – | – | – | – |
| CNCCN(C)Cc1c[nH]nc1[C@H]1CC[C@H](N(CCCOC)C(=O)CCOc2ccccc2)CC1 [Compound 247] | < 100 | 20.2 | < 3000 | 698 | – | – | – | – |
| CNCCN(C)Cc1c[nH]nc1[C@H]1CC[C@H](N(CC(C)C)C(=O)CCCOC)CC1 [Compound 248] | < 100 | 32.6 | < 3000 | 1310 | – | – | – | – |
| CCN(C(=O)CCC(C)C)[C@H]1CC[C@@H](c2n[nH]cc2CN(C)CCNC)CC1 [Compound 251] | < 100 | 17.1 | < 3000 | 1450 | – | – | – | – |
| CNCCN(C)Cc1c[nH]nc1[C@H]1CC[C@H](N(CCOC)C(=O)CC(C)C)CC1 [Compound 252] | < 100 | 48.3 | < 3000 | 267 | – | – | – | – |
| CNCCN(C)Cc1c[nH]nc1[C@H]1CC[C@]2(CCOC2(C)C)CC1 [Compound 253] | < 100 | 13.4 | < 3000 | 56.6 | – | – | – | – |
| CNCCN(C)Cc1cnn(C)c1[C@H]1CC[C@]2(CC1)CC(C)(C)CO2 [Compound 257] | 101 to 1000 | 153 | < 3000 | 13.2 | – | – | – | – |
| CNCCN(C)Cc1c[nH]nc1[C@H]1CC[C@@H](C(=O)N(C)CCOc2ccccc2)CC1 [Compound 259] | < 100 | 33.1 | < 3000 | 408 | – | – | – | – |

More lines, main results first:

| IC50 [1] [nM] | IC50 [1, 3] [nM] | SMILES | EC30 [2, 4] [nM] | EC30 [2, 5] [nM] | EC30 ([2]; Homo sapiens, RKO, 72 h, read-out: In Cell Western EC30, RKO cells, 72 hours compound incubation, mono-methyl arginine signal normalised to DNA content (DRAQ5), percent activation vs 20 μM reference compound) [nM] | EC30 ([2]; Homo sapiens, RKO, 72 h, read-out: In Cell Western EC30, RKO cells, 72 hours incubation, mono-methyl arginine signal normalised to DNA content, single experiment or average of multiple experiments) [nM] | In Cell Western EC30 ([2]; RKO cells, 72 hours compound incubation, mono-methyl arginine signal normalised to DNA content (DRAQ5), percent activation vs 20 μM reference compound) | EC30 ([2]; RKO cells, 72 hours incubation, mono-methyl arginine signal normalised to DNA content, single experiment or average of multiple experiments, read-out: In Cell Western EC30) [nM] |
| --- | --- | --- | --- | --- | --- | --- | --- | --- |
| < 100 | 15.8 | CNCCN(C)Cc1c[nH]nc1[C@H]1CC[C@H](N(CCOc2ccccc2)C(=O)CC(C)C)CC1 [Compound 223] | < 3000 | 275 | – | – | – | – |
| < 100 | 18 | CCN(C(=O)CCOc1ccccc1)[C@H]1CC[C@@H](c2n[nH]cc2CN(C)CCNC)CC1 [Compound 224] | < 3000 | 84.7 | – | – | – | – |
| < 100 | 11.6 | CCN(C(=O)CCOc1ccccc1)[C@H]1CC[C@H](c2n[nH]cc2CN(C)CCNC)CC1 [Compound 225] | < 3000 | 649 | – | – | – | – |
| < 100 | 41.5 | CNCCN(C)Cc1c[nH]nc1[C@H]1CC[C@H](C(=O)N(C)CC(C)C)CC1 [Compound 226] | < 3000 | 1530 | – | – | – | – |
| < 100 | 29.1 | CNCCN(C)Cc1c[nH]nc1[C@H]1CC[C@H](N(CCOc2ccccc2)C(=O)CCCOC)CC1 [Compound 229] | < 3000 | 689 | – | – | – | – |
| < 100 | 14.7 | CNCCN(C)Cc1c[nH]nc1[C@H]1CC[C@@H](N(CC(C)C)C(=O)CCOc2ccccc2)CC1 [Compound 231] | < 3000 | 96.7 | – | – | – | – |
| < 100 | 47.9 | CNCCN(C)Cc1c[nH]nc1[C@H]1CC[C@@H](N(CC(C)C)C(=O)CCOC)CC1 [Compound 233] | < 3000 | 1060 | – | – | – | – |
| < 100 | 84.1 | CNCCN(C)Cc1c[nH]nc1[C@H]1CC[C@H](N(CC(C)C)C(=O)CCOC)CC1 [Compound 234] | < 3000 | 1060 | – | – | – | – |
| < 100 | 34.1 | CNCCN(C)Cc1c[nH]nc1[C@H]1CC[C@@H](N(CCC(C)C)C(=O)CCOC)CC1 [Compound 235] | < 3000 | 813 | – | – | – | – |
| < 100 | 41 | CNCCN(C)Cc1c[nH]nc1[C@H]1CC[C@@H](N(CCC(C)C)C(=O)CCCOC)CC1 [Compound 237] | < 3000 | 1440 | – | – | – | – |
| < 100 | 53.9 | CNCCN(C)Cc1c[nH]nc1[C@H]1CC[C@H](N(CCC(C)C)C(=O)CCCOC)CC1 [Compound 238] | < 3000 | 2150 | – | – | – | – |
| < 100 | 54.8 | CNCCN(C)Cc1c[nH]nc1[C@H]1CC[C@@H](N(CCCOC)C(=O)CCC(C)C)CC1 [Compound 244] | < 3000 | 2530 | – | – | – | – |
| < 100 | 82.8 | CNCCN(C)Cc1c[nH]nc1[C@H]1CC[C@H](N(CC(C)C)C(=O)CCCOC)CC1 [Compound 249] | – | – | – | – | A (“A” indicates an EC30 ≤ 3.00 μM) | 658.5 |
| < 100 | 17.6 | CNCCN(C)Cc1c[nH]nc1[C@H]1CC[C@H](N(CCOC)C(=O)CCC(C)C)CC1 [Compound 254] | < 3000 | 1340 | – | – | – | – |
| < 100 | 27.6 | CNCCN(C)Cc1c[nH]nc1C1CCC(C)(C)[C@@H](C(=O)OC)C1 (some centres unmarked) [Compound 255] | < 3000 | 214 | – | – | – | – |
| < 100 | 38.5 | CNCCN(C)Cc1c[nH]nc1C1CCC(C)(C)[C@H](C(=O)OC)C1 (some centres unmarked) [Compound 256] | < 3000 | 316 | – | – | – | – |
| < 100 | 18 | CNCCN(C)Cc1c[nH]nc1[C@H]1CC[C@H](C(=O)N(C)CCOc2ccccc2)CC1 [Compound 258] | < 3000 | 303 | – | – | – | – |
| < 100 | 83.1 | CNCCN(C)Cc1c[nH]nc1[C@H]1CC[C@@]2(CCC(C)(C)O2)CC1 [Compound 260] | < 3000 | 207 | – | – | – | – |
| < 100 | 31.7 | CNCCN(C)Cc1c[nH]nc1[C@H]1CC[C@@H](N(CCOC)C(=O)CCC(C)C)CC1 [Compound 261] | < 3000 | 289 | – | – | – | – |
| < 100 | 81.2 | CNCCN(C)Cc1c[nH]nc1C1CCC(C)(C)[C@H](C(=O)NCC(C)C)C1 (some centres unmarked) [Compound 262] | < 3000 | 289 | – | – | – | – |
